Reference: ChEMBL document CHEMBL2331162, “Biophysical fragment screening of the β1-adrenergic receptor: identification of high affinity arylpiperazine leads using structure-based drug design” (J Med Chem, 2013)
Activity calls are given as the source filed them. The rule behind the calls is not given here.

What was measured:
[1] = biological target: Beta-1 adrenergic receptor (Homo sapiens, UniProt P08588); assay: Displacement of [3H]dihydroalprenolol from human wild type beta1 adrenergic receptor expressed in HEK293 cell membranes after 90 mins by liquid scintillation counting analysis
Beta-1 adrenergic receptor, sequence (P08588 whole entry): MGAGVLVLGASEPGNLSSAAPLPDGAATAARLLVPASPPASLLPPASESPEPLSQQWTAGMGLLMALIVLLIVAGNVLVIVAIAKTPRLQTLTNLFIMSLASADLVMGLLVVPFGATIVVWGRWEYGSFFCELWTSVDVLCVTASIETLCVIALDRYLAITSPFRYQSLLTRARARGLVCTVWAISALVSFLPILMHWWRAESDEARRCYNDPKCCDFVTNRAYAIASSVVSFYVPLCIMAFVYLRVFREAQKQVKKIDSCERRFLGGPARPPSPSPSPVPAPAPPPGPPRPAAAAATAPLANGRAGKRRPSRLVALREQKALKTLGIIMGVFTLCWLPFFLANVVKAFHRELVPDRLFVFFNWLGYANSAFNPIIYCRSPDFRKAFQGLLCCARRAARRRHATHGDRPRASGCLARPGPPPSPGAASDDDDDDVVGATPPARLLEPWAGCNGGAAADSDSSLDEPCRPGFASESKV

[2] = biological target: T1, Muscarinic acetylcholine receptor M4 (Homo sapiens) (UniProt P08173); assay: Agonist activity at human muscarinic M4 receptor expressed in CHO cells assessed as stimulation of ERK1/2 phosphorylation after 15 mins by Alphascreen Surefire assay; type: cell-based
T1 sequence (whole entry): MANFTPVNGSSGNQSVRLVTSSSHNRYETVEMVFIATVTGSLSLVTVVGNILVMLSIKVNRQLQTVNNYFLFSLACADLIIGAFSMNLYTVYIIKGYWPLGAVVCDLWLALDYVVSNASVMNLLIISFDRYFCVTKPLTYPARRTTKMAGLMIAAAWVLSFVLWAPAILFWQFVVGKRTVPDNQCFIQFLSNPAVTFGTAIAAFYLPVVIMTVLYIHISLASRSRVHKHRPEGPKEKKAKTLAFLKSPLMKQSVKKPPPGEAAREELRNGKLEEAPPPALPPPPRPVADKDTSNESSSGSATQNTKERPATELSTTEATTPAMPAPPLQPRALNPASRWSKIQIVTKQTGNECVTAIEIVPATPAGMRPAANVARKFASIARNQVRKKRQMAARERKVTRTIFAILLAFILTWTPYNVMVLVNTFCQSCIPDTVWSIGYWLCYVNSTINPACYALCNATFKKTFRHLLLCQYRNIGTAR

[3] = biological target: T2, Muscarinic acetylcholine receptor M3 (Homo sapiens, UniProt P20309); assay: Agonist activity at human muscarinic M3 receptor expressed in CHO cells assessed as stimulation of ERK1/2 phosphorylation after 15 mins by Alphascreen Surefire assay; type: cell-based
Target sequence in this assay (P20309 whole entry, looked up): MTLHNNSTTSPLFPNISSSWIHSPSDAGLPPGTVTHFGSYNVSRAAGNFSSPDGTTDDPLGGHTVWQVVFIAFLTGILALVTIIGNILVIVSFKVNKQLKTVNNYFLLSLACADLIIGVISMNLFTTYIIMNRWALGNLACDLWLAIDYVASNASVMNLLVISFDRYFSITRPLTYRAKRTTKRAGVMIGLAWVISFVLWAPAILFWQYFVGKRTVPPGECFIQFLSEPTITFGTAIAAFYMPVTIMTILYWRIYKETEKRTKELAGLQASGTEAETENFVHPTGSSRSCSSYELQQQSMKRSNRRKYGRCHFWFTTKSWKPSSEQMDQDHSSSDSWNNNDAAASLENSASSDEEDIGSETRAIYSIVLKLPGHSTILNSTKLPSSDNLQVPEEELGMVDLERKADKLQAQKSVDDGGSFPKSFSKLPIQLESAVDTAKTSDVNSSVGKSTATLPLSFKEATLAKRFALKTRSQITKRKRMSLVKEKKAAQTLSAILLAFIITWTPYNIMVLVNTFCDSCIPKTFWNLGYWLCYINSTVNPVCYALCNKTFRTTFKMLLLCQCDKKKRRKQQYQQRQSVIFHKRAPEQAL

[4] = biological target: T3, Muscarinic acetylcholine receptor M2 (Homo sapiens) (UniProt P08172); assay: Agonist activity at human muscarinic M2 receptor expressed in CHO cells assessed as stimulation of ERK1/2 phosphorylation after 15 mins by Alphascreen Surefire assay; type: cell-based
T3 sequence (whole entry): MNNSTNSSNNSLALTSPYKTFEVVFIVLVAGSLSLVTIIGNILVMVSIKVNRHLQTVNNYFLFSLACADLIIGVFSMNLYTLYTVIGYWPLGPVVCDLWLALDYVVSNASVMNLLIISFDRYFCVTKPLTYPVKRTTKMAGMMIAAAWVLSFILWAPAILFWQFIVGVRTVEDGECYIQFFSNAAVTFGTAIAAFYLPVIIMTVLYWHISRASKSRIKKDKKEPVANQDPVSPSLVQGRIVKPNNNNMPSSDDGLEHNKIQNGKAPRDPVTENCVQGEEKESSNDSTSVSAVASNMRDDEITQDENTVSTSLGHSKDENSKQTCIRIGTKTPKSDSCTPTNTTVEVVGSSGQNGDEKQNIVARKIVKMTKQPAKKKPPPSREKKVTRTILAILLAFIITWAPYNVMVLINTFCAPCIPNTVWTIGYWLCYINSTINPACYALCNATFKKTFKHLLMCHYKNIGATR

[5] = biological target: T4, Muscarinic acetylcholine receptor M1 (Homo sapiens) (UniProt P11229); assay: Agonist activity at human muscarinic M1 receptor expressed in CHO cells assessed as stimulation of ERK1/2 phosphorylation after 15 mins by Alphascreen Surefire assay; type: cell-based
T4 sequence (whole entry): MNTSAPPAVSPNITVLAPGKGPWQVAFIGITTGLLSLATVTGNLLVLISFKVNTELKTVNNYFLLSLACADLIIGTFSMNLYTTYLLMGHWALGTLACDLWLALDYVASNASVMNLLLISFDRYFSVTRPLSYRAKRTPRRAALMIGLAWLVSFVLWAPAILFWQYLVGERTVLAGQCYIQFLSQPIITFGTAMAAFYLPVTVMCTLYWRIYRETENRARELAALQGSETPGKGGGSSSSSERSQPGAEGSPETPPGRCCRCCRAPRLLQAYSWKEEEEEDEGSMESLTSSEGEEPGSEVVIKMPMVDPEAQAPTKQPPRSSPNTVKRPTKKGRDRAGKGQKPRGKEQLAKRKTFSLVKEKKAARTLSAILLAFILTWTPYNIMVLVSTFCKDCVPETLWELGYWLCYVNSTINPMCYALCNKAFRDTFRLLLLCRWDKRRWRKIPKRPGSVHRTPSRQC

[6] = biological target: T5, Muscarinic acetylcholine receptor M2 (Homo sapiens, UniProt P08172); assay: Displacement of [3H]-NMS from recombinant muscarinic M2 receptor (unknown origin) expressed in CHOK1 cells after 60 mins by liquid scintillation counting analysis; type: cell-based, CHO-K1
T5 sequence (P08172 whole entry): T3 sequence (whole entry)

[7] = biological target: T6, Muscarinic acetylcholine receptor M4 (Homo sapiens, UniProt P08173); assay: Displacement of [3H]-NMS from recombinant muscarinic M4 receptor (unknown origin) expressed in CHOK1 cells after 60 mins by liquid scintillation counting analysis; type: cell-based, CHO-K1
T6 sequence (P08173 whole entry): T1 sequence (whole entry)

[8] = biological target: T2, Muscarinic acetylcholine receptor M3; assay: Displacement of [3H]-NMS from recombinant muscarinic M3 receptor (unknown origin) expressed in CHOK1 cells after 60 mins by liquid scintillation counting analysis; type: cell-based, CHO-K1
Target sequence in this assay (P20309 whole entry): as the sequence (P20309 whole entry, looked up) above

`Clc1ccc(N2CCNCC2)cc1Cl` was tested, and the Ki [1] was 214 nM.

With `FC(F)(F)c1cc(N2CCNCC2)cc(C(F)(F)F)c1` the Ki [1] was 1260 nM.

With `FC(F)(F)c1ccnc(N2CCNCC2)n1` the Ki [1] was 2510 nM.

`FC(F)(F)c1ccnc(N2CCNCC2)c1` gave a Ki [1] of 2340 nM.

For `Cc1cc(N2CCNCC2)c2ccccc2n1`, the Ki [1] was 1580 nM.

In the case of `Clc1cccc(N2CCNCC2)c1Cl`, the Activity [2] is reported as “inactive”, the Activity [3] is reported as “inactive” and the Activity [4] is reported as “inactive”. For the same molecule, the Activity [5] was “inactive”, the Ki [6] was > 20000 nM and the Ki [1] was 107 nM.

`Cc1nc(N2CCNCC2)c2c3c(sc2n1)CC(C)CC3` (stereo unspecified) showed a Ki [1] of 676 nM.

Work on `Cc1cccc(N2CCNCC2)c1C` yielded a Ki [1] of 537 nM.

`c1csc(-c2cccc3ccc(N4CCNCC4)nc23)c1` was tested, and the Ki [1] was 251 nM.

For `Cc1ccc(N2CCNCC2)cc1C`, the Ki [1] was 741 nM.

In the case of `c1cc(N2CCNCC2)c2cc[nH]c2c1`, the Activity [2] is reported as “inactive”, the Activity [3] is reported as “inactive” and the Activity [4] is reported as “inactive”. For the same molecule, the Activity [5] was “inactive”, the Ki [6] was > 20000 nM and the Ki [1] was 67.6 nM.

`COc1cc(OC)cc(N2CCNCC2)c1` gave a Ki [1] of 1580 nM.

For `Clc1cc(Cl)cc(N2CCNCC2)c1`, the Activity [2] was “inactive”, the Activity [3] was “inactive” and the Activity [4] was “inactive”. The Activity [5] was “inactive”, the Ki [7] was 31600 nM and the Ki [8] was 7940 nM. The Ki [1] was 85.1 nM.

`CSc1nc(N2CCNCC2)c2sc3c(c2n1)CCCC3` gave a Ki [1] of 200 nM.

In the case of `Cc1cc(N2CCNCC2)nc2ccccc12`, the Activity [2] is reported as “inactive”, the Activity [3] is reported as “inactive” and the Activity [4] is reported as “inactive”. The Activity [5] was “inactive”, the Ki [6] was > 20000 nM and the Ki [1] was 224 nM.
